Assay [1] concerns the target T1, Mycobacterium tuberculosis InhA (Mycobacterium tuberculosis, UniProt P9WGR1). Description: InhA biochemical inhibition assay. As to conditions: for InhA pIC50 ^[a][e] (% 500 μM): tested up to 1 mM; for IC50: read-out: InhA pIC50 ^[a][e] (% 500 μM) (converted). An excerpt: InhA biochemical inhibition assay on Mycobacterium tuberculosis InhA
The target of assay [2] is T1, Mycobacterium tuberculosis InhA. Description: surface plasmon resonance, equilibrium. It counts as binding. The settings on record: read-out: SPR pK d ^[f] (converted). An excerpt: surface plasmon resonance, equilibrium on Mycobacterium tuberculosis InhA
A general note: SPR reads the build-up and loss of mass on a sensor chip optically.

The target is the same in assay [3]. Description: STD 1H NMR. The settings on record: NADH-bound InhA; co-crystallised with ligands. The format is binding.
[4] abbreviates: published lead, not marked as earlier data in table.

T1 sequence (P9WGR1 whole entry, looked up): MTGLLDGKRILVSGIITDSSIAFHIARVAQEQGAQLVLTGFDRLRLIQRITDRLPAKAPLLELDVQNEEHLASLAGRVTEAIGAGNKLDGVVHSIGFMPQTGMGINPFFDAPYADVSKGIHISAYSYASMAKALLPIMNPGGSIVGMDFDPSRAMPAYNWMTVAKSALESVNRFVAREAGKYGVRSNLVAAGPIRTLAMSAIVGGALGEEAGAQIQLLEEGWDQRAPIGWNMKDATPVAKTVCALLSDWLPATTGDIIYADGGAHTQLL

For `O=c1[nH]c(CC2CCCCC2)cc(O)c1C1CCN(c2ncccn2)CC1` [compound 42, 42], in assay [1], the “InhA pIC50 ^[a][e] (% 500 μM)” value is given as 6.5±0.03.
`Cc1cc(N)n(Cc2nnc(Nc3ccn(Cc4c(F)cccc4Cl)n3)s2)n1` [compound 47, 47]: the Kd in assay [2] is 0.0794 µM. In addition, the “InhA pIC50 ^[a][e] (% 500 μM)” value in assay [1] was determined as 7.3±0.20.
Take `CCOC(=O)[C@@H]1CCc2nc(C)sc2C1` [compound 22, 22]: in assay [1], the IC50 was 794 µM.
Turning to `Cc1cncc(CNC(=O)NC2CCCCC2)c1` [compound 38, 38], the Kd in assay [2] was 631 µM. The IC50 in assay [1] is 100 µM.
`Cc1cc(N)n(Cc2ccc(C(=O)NCc3ccc(F)cc3Cl)cc2)n1` [compound 46, 46]: the Kd in assay [2] is 0.501 µM. Moreover, the “InhA pIC50 ^[a][e] (% 500 μM)” value in assay [1] stood at 6.3±0.25.
As to `NC(=O)C1=CN([C@@H]2O[C@H](COP(=O)(O)OP(=O)(O)OC[C@H]3O[C@@H](n4cnc5c(N)ncnc54)[C@H](O)[C@@H]3O)[C@@H](O)[C@H]2O)C=CC1` [NADH], the “STD 1H NMR” value in assay [3] is recorded as “NADH binding was also observed in the STD‐NMR spectra”.
With `Cc1cc(N)n(Cc2ccccc2)n1` [compound 9, 9], the Kd in assay [2] was 501 µM. Also, in assay [1], the “InhA pIC50 ^[a][e] (% 500 μM)” value was 3.4±0.23.
With `OCc1ccc(Cn2cccn2)cc1` [compound 4, 4], the IC50 in assay [1] is more than 1000 µM.
For `Cc1cc(C)n(Cc2ccc(C(=O)NCc3ccc(F)cc3Cl)cc2)n1` [compound 44, 44], the “InhA pIC50 ^[a][e] (% 500 μM)” value in assay [1] (setting [4]) is 6.9±0.07.
As to `Cc1cc(=O)c(-c2ccccc2)c(C)[nH]1` [compound 40, 40], the Kd in assay [2] is 25.1 µM. Besides, in assay [1], the IC50 was 15.8 µM.
Take `Cc1cncc(CNC(=O)NC2CCN(c3ncccn3)CC2)c1` [compound 39, 39]: the Kd in assay [2] is 20 µM. Further, the “InhA pIC50 ^[a][e] (% 500 μM)” value in assay [1] stood at 5.0±0.14.
With `O=C(NCc1cccnc1)NC1CCN(c2ncccn2)CC1` [compound 37, 37], the “InhA pIC50 ^[a][e] (% 500 μM)” value in assay [1] is recorded as 4.1±0.06.
Take `Cc1ccn(C(C)c2nnc(Nc3ccn(Cc4c(F)cccc4Cl)n3)s2)n1` (stereo not shown) [compound 45, 45]: in assay [2], the Kd is 0.01 µM. Besides, the “InhA pIC50 ^[a][e] (% 500 μM)” value in assay [1] (setting [4]) came to 8.1±0.27.
With `CC(C)Cc1cc(O)c(C2CCN(c3ncccn3)CC2)c(=O)[nH]1` [compound 43, 43], the Kd in assay [2] is 200 µM. Also, the IC50 in assay [1] was 6.31 µM.
For the compound `Cc1cc(=O)c(C2CCN(c3ncccn3)CC2)c(C)[nH]1` [compound 41, 41], the Kd in assay [2] was 6.31 µM. In addition, the IC50 in assay [1] was 1 µM.
Turning to `O=C(CCc1cccnc1)NC1CCN(c2ncccn2)CC1` [compound 36, 36], the IC50 in assay [1] is more than 1000 µM.

The record behind these values is publication PMC5915743, “Screening of a Novel Fragment Library with Functional Complexity against Mycobacterium tuberculosis InhA” (Chemmedchem, 2018).
